Assay results published in ChEMBL document CHEMBL1201862, “PubChem BioAssay data set” (2004).
The source made the active and inactive calls.

How the values were obtained:
[1] = molecular target: Glyceraldehyde-3-phosphate dehydrogenase (Homo sapiens, UniProt P04406)
[2] = molecular target: ATP-dependent molecular chaperone HSP82 (Candida albicans (strain WO-1) (Yeast), UniProt C4YTQ8); experiment: loss of DOC-induced GRE-beta-galactosidase reporter signal, dose response, Hsp90 inhibitor project, S. cerevisiae, luminescence (AID 2400); assay type: functional, cell-based;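 also: beta-galactosidase luminescence from glucocorticoid response element reporter as proxy for Hsp90 function; inhibitor potency where signal loss means Hsp90 inhibition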
Chain of ATP-dependent molecular chaperone HSP82 (C4YTQ8 whole entry): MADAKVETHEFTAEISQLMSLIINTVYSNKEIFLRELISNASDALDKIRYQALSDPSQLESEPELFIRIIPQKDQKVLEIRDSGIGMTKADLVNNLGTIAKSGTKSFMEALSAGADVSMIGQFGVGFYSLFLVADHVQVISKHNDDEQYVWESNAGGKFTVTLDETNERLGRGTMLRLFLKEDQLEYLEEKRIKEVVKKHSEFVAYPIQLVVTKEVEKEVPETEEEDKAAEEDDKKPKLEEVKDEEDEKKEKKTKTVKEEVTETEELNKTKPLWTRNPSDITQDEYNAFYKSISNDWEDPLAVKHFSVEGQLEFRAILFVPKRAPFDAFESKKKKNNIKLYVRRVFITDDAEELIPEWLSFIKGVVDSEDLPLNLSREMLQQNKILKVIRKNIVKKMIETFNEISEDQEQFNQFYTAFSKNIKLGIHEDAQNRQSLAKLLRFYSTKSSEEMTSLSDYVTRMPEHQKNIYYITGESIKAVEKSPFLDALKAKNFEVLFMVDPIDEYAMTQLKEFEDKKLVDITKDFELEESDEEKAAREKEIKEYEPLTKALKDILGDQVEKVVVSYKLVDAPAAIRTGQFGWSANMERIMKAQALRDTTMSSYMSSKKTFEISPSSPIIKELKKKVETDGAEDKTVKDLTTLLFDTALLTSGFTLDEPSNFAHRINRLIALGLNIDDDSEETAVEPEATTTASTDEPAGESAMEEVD

[3] = molecular target: T1, Serine/threonine-protein phosphatase (Candida dubliniensis (strain CD36 / CBS 7987 / NCPF 3949 / NRRLY-17841) (Yeast), UniProt B9W6M3); experiment: calcineurin pathway inhibitors in yeast reporter, dose response, S. cerevisiae, CDRE-lacZ, luminescence, secondary (AID 2388); assay type: functional, cell-based;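 also: yeast reporter cells carrying a calcineurin-responsive lacZ construct stimulated with calcium chloride; luminescent beta-galactosidase reporter signal in whole cells rather than isolated phosphatase activity; potency for inhibition where a drop in reporter signal means calcineurin blockade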
T1 sequence (B9W6M3 whole entry): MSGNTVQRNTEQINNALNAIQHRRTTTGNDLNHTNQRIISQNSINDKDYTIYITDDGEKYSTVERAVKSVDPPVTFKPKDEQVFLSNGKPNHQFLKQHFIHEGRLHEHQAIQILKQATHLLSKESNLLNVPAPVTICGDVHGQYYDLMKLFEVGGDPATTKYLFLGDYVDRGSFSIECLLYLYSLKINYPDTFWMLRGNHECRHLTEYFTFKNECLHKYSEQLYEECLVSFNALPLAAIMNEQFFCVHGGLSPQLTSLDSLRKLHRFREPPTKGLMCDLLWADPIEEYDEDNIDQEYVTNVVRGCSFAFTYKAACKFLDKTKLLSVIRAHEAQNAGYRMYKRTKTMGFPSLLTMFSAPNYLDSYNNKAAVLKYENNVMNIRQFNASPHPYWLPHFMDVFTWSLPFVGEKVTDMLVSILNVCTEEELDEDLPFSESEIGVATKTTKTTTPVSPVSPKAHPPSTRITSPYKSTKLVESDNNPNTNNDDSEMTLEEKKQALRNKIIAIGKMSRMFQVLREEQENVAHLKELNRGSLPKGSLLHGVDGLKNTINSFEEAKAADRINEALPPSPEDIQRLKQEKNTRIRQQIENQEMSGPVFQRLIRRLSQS

[4] = NIH-3T3 fibroblast cytotoxicity, dose response, cytotoxicity control, cell-based, fluorescence, Alamar Blue, secondary assay (AID 2327); assay type: functional;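 also: NIH-3T3 mouse fibroblasts cultured with fluconazole at 8 µg/mL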
[5] = C. albicans growth with fluconazole, confirmation, fluorescence, retest (AID 2467); assay type: functional, cell-based
[6] = molecular target: T2, Corticotropin-releasing factor receptor 2/Corticotropin-releasing factor-binding protein (Homo sapiens, UniProt P24387+Q13324); experiment: activators of CRF receptor 2 with binding protein – uHTS hits, confirmation (AID 602473); assay type: functional; details: read-out: EC50_Mean
T2 sequence (Q13324 whole entry): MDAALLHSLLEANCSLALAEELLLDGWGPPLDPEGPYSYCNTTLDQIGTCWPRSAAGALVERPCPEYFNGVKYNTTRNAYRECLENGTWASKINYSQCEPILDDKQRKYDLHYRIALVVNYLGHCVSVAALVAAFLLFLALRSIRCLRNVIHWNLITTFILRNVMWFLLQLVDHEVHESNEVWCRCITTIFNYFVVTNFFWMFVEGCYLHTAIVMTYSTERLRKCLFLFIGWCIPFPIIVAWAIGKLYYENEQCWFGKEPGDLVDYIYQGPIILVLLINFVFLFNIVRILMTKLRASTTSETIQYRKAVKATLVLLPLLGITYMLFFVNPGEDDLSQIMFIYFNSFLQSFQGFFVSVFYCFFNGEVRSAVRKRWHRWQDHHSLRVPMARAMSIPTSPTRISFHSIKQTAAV
T2 sequence (P24387 whole entry): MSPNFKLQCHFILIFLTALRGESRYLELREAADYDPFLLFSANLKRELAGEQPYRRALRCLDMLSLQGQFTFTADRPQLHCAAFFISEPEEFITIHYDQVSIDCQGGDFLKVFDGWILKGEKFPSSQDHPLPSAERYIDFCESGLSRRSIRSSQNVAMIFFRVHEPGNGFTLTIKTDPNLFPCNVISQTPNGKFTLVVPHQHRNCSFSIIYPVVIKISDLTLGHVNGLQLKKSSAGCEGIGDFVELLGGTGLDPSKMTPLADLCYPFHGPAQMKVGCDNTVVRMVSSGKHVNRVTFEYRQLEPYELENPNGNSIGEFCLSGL

[7] = Luminescence Cell-Based Dose Retest to Confirm Inhibitors of Cancer Stem Cells. [Related pubchem assays (depositor defined):AID2717, AID2721]; assay type: functional; details: Homo sapiens
[8] = molecular target: T3, Small ubiquitin-related modifier 1 (Homo sapiens, UniProt P63165); experiment: inhibitors of SUMO1 partner interactions, dose response, biochemical, FRET (AID 624383); assay type: functional; details: read-out: IC50_Mean
T3 sequence (P63165 whole entry): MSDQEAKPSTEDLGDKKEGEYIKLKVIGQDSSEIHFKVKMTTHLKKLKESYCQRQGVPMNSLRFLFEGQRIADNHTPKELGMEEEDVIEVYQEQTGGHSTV

[9] = molecular target: T4, Heat shock factor protein 1 (Mus musculus, UniProt P38532); experiment: HSF1 potentiators in luciferase reporter cells, confirmation, cell-based, NIH3T3, luminescence, dose retest (AID 435004); assay type: functional;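 also: stress induced by proteasome inhibitor MG132 added 30 min after compound; luciferase reporter driven by HSF1 response element in NIH3T3 cells; actives raise luminescence as potentiators of the MG132 stress response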
T4 sequence (P38532 whole entry): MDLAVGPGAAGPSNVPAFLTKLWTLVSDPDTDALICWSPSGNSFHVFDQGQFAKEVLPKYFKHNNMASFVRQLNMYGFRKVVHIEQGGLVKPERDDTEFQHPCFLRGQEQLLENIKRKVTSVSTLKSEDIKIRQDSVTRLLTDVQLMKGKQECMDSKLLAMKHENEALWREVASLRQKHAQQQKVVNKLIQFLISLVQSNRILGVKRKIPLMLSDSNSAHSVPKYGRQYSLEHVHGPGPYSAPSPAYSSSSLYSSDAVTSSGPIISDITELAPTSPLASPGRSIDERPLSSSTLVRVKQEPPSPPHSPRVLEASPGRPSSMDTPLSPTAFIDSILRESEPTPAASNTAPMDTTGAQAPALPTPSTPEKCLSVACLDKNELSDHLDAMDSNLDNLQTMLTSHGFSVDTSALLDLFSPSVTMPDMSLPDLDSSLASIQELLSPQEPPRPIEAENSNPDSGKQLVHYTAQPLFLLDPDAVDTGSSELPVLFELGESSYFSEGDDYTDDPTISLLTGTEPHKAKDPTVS

[10] = molecular target: T3, Small ubiquitin-related modifier 1; experiment: inhibitors of SUMO1 peptide binding, dose response, biochemical, fluorescence polarization, uHTS hits (AID 624382); assay type: functional; details: read-out: IC50_Mean
INS1 = experiment: beta cell apoptosis inhibitors, cytokine rescue, dose response, luminescence, retest (AID 449756); assay type: functional, cell-based; details: Rattus norvegicus;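 also: cell death triggered by IL-1 beta plus TNF-alpha plus IFN-gamma mixture; protective hits raise ATP signal compared with cytokine alone wells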
[11] = molecular target: 26S proteasome non-ATPase regulatory subunit 14 (Homo sapiens, UniProt O00487); experiment: inhibition of proteasome subunit RPN11 – biochemical, fluorescence polarization, uHTS hits, confirmation (AID 602368); assay type: functional
Chain of 26S proteasome non-ATPase regulatory subunit 14 (O00487 whole entry): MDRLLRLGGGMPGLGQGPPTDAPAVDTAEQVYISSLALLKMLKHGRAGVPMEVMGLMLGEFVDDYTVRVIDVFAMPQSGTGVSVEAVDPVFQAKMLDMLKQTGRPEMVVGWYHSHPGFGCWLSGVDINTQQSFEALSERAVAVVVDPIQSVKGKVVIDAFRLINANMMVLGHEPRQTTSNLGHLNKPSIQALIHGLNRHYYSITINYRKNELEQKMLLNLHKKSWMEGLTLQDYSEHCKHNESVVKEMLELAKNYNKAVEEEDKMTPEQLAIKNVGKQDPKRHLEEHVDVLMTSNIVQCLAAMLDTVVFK

Prothrombin = Prothrombin (Bos taurus, UniProt P00735); experiment: thrombin inhibition, dose response, biochemical, fluorescence polarization, uHTS hits (AID 602369); assay type: functional
[12] = molecular target: 72 kDa type IV collagenase (Homo sapiens, UniProt P08253); experiment: Dose Response validation of uHTS RPN11 inhibitor hits using a MMP-2 Fluorescence assay.; assay type: functional
Chain of 72 kDa type IV collagenase (P08253 whole entry): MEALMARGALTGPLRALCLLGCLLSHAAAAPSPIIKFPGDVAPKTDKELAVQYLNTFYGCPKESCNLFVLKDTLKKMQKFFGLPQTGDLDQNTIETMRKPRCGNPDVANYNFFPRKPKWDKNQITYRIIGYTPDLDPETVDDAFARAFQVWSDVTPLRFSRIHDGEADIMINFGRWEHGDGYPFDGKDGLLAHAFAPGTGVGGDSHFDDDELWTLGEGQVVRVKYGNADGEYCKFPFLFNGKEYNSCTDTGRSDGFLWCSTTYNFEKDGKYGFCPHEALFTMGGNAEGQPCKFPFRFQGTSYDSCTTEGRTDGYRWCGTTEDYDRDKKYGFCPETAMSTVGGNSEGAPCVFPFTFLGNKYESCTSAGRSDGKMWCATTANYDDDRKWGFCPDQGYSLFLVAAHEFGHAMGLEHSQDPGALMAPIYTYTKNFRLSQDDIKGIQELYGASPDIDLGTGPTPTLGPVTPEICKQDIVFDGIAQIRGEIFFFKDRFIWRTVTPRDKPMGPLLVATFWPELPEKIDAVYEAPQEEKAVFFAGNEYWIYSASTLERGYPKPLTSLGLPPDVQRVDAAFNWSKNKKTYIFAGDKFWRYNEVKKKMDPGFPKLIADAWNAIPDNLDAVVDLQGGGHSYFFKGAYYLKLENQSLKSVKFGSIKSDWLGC

Large T antigen = Large T antigen (Simian virus 40, UniProt P03070); assay type: functional, Betapolyomavirus macacae;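 also: Confirmatory-stage PubChem screen for compounds that inhibit SV40 T antigen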
Chain of Large T antigen (P03070 whole entry): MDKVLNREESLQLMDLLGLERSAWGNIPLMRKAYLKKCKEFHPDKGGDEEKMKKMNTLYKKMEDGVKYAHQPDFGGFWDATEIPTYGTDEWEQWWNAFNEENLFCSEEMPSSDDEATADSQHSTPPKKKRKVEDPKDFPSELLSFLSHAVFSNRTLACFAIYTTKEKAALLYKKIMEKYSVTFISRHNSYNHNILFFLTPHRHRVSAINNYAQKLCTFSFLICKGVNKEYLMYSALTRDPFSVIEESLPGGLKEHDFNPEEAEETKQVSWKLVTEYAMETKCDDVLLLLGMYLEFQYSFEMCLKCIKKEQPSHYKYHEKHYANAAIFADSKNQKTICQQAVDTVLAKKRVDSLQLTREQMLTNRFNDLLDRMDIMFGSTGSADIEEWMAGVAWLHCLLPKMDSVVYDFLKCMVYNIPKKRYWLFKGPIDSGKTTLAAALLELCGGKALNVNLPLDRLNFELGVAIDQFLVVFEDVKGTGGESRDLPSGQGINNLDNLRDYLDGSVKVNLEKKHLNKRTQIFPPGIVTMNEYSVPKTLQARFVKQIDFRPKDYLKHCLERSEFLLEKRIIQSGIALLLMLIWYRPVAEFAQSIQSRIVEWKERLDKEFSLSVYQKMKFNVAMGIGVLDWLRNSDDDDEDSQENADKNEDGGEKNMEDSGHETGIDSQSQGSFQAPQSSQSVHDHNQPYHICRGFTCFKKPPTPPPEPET

[13] = molecular target: Luciferin 4-monooxygenase (Photinus pyralis, UniProt P08659); experiment: firefly luciferase enzyme inhibitors, dose response, biochemical, luminescence (AID 1891)
Chain of Luciferin 4-monooxygenase (P08659 whole entry): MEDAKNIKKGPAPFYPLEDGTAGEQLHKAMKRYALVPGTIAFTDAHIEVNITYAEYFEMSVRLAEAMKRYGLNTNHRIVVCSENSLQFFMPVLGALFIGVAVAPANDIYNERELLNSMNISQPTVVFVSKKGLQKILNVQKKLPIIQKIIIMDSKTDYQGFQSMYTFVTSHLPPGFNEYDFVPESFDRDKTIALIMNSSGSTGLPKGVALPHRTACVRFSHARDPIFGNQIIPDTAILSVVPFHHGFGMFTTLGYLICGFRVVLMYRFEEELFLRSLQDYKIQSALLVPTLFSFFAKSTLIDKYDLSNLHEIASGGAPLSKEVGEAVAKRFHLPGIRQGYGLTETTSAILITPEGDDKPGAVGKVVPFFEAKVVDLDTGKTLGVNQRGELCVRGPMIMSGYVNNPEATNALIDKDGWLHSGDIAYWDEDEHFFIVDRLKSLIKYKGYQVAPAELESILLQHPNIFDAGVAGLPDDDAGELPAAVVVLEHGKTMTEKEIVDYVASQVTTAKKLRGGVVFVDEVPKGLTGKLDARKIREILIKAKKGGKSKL

[14] = Luminescence Cell-Based Dose Confirmation HTS to Identify Inhibitors of Platelet Dense Granule Release. [Related pubchem assays: 1663 (Primary HTS), 1678 (Summary of Project)]; assay type: functional
HEK293 [15] = experiment: cells; assay type: functional, cell-based; details: Homo sapiens
HEK293 [16] = experiment: cells; assay type: functional, cell-based; details: Homo sapiens; remark: listed apart in the source
[17] = control 3'UTR Renilla luciferase suppression, dose response, counter-screen for Shn3 inhibitor project, cell-based, Clone20-Shn3RL, cherry-picked (AID 624133); assay type: functional
[18] = Shn3 3'UTR reporter inhibitors, dose response, cell-based, Clone20 osteoblasts, firefly luciferase, cherry-picked (AID 624132); assay type: functional;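 also: firefly luciferase luminescence from reporter carrying the Shn3 3'UTR in osteoblasts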
[19] = HepG2 cell cytotoxicity, dose response, cytotoxicity control for Shn3 inhibitor project, CellTiter-Glo, cherry-picked (AID 624134); assay type: functional, cell-based
HEK293 [20] = experiment: NOD2 signaling inhibitors in MDP-stimulated cells, cell-based, uHTS, luminescence (AID 2001); assay type: functional; details: Homo sapiens
HEK293 [21] = experiment: NOD1 signaling inhibitors, primary screen, cell-based, luminescence, uHTS (AID 1578); assay type: functional; details: Homo sapiens
[22] = molecular target: T5, Rac GTPase-activating protein 1 (Homo sapiens, UniProt Q9H0H5); experiment: MgcRacGAP GTPase-activating activity inhibitors, confirmation, biochemical, ADP Hunter fluorescence, primary and confirmatory (AID 624330); assay type: functional
T5 sequence (Q9H0H5 whole entry): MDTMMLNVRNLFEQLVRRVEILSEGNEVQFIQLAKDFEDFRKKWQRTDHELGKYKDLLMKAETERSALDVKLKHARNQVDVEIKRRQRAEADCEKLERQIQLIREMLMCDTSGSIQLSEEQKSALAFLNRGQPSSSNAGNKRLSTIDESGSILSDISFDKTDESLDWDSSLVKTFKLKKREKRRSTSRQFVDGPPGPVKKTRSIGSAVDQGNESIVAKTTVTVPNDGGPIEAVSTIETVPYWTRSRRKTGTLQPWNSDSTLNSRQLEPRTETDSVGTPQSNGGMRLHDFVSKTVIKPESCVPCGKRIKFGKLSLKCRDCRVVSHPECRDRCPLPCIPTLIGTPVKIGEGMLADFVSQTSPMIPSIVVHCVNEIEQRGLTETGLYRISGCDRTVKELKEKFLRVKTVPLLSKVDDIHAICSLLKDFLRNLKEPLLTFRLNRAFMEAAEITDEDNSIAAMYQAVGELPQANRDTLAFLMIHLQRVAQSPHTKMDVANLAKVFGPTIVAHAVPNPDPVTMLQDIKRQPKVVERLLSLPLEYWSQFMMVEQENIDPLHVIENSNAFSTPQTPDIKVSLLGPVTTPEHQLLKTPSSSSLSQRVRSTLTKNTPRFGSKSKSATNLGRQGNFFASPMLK

Streptococcus = experiment: Group A Streptococcus viability loss, dose response, counter-screen for streptokinase expression inhibitor project, luminescence, BacTiterGlo (AID 1915); assay type: functional, organism-based;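 also: potency for reduction of bacterial viability or growth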
[23] = test system: Streptococcus sp. 'group A'; experiment: growth inhibition of control SK(-) GAS strain, dose response, counter-screen for streptokinase expression inhibitor project, luminescence, kanamycin, BacTiterGlo, confirmation (AID 1900); assay type: functional, organism-based
Streptokinase A = molecular target: T6, Streptokinase A (Streptococcus pyogenes serotype M1, UniProt P10520); experiment: S. pyogenes streptokinase expression inhibitors, potency, dose response, plasminogen activation absorbance, OD405 (AID 1914); assay type: functional, Streptococcus pyogenes M1 GAS;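 also: secreted streptokinase activity via plasminogen activation per viability signal from cell pellet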
T6 sequence (P10520 whole entry): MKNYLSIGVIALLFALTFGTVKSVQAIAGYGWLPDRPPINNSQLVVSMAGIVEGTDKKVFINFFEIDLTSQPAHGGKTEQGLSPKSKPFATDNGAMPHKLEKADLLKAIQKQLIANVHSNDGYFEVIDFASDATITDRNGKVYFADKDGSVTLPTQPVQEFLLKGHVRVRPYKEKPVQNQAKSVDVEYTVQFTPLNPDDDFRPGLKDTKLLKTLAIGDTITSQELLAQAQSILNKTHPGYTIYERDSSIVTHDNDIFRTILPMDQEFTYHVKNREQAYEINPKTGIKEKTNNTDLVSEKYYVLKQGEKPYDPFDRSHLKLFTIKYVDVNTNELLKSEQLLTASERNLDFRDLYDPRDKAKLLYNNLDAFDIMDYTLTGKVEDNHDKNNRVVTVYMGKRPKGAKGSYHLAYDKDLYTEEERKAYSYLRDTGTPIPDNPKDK

H9c2 = experiment: cells; assay type: functional, cell-based; details: Rattus norvegicus, H9c2, Myocardium;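 also: confirmatory concentration-response retest of ultra-high-throughput screening hits for modulation of myocardial damage; cell death induced by hydrogen peroxide oxidative stress; compound pretreatment for 60 min then peroxide exposure for 2 h; potency is for protecting the cells against peroxide damage rather than for killing them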
[24] = HeLa cell cytotoxicity, dose response, cytotoxicity control for MgcRacGAP inhibitor project (AID 624300); assay type: functional

Chain of Glyceraldehyde-3-phosphate dehydrogenase (P04406 whole entry): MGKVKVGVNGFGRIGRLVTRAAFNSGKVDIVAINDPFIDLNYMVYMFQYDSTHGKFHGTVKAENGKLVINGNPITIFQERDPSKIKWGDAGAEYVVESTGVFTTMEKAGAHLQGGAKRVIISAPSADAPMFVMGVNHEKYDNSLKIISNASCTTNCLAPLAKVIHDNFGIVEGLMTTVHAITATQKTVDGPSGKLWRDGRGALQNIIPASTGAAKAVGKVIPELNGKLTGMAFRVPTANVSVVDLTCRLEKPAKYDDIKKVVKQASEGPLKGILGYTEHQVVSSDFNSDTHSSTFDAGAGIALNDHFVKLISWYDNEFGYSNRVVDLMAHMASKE

C[C@@H]1CN(C2=C(Cl)C(=O)N(c3ccc(Cl)nc3)C2=O)CCN1
IC50 [1]: > 50 µM (inconclusive)

CCc1nnc(NC(=O)CSc2nc(SC)ns2)s1
EC50 [2]: > 160 µM (inactive) | EC50 [3]: > 180 µM (inactive) | EC50 [4]: > 160 µM (inactive) | EC50 [5]: 2.88 µM (active) | EC50 [6]: > 53 µM (inactive)

Cn1cc([N+](=O)[O-])c(C(=O)Nc2ccc(-c3nc4ccccc4o3)cc2)n1
AC50 [7]: 2.45 µM (active) | IC50 [8]: 17.3 µM (active) | EC50 [9]: 6.61 µM (active) | IC50 [10]: > 66.6 µM (inactive)

COc1ccc(C2C(C#N)=C(N)Oc3c2ccc2cccnc32)cc1OC (configuration not stated)
EC50 [2]: > 150 µM (inactive) | EC50 [3]: > 180 µM (inactive) | AC50 (INS1): 6.75 µM (active) | EC50 [4]: 19.1 µM (inconclusive) | EC50 [5]: 5.01 µM (active)

O=C1NC(=O)N(c2ccc(Cl)cc2)C(=O)/C1=C\c1ccc(Sc2nc3ccccc3[nH]2)o1
IC50 [11]: 42.2 µM (active) | IC50 (Prothrombin): 44.9 µM (active) | IC50 [12]: > 100 µM (inactive) | IC50 (Large T antigen): 18.8 µM (active)

CCOC(=O)c1c(N=C(S)NCC2CCCO2)sc(C)c1C (configuration not stated)
EC50 [2]: 16.9 µM (active) | EC50 [3]: > 180 µM (inactive) | EC50 [4]: > 150 µM (inactive) | EC50 [5]: 0.635 µM (active)

CC(NS(C)(=O)=O)C(c1cccs1)N1CCN(Cc2ccccc2)CC1 (configuration not stated)
EC50 [13]: > 112 µM (not active) | EC50 [14]: > 112 µM (not active)

O=C(c1cc(COc2c(F)cccc2F)on1)N1CCC(c2ccncc2)CC1
IC50 (HEK293 [15]): > 20 µM (inactive) | IC50 (HEK293 [16]): 9.14 µM (active) | AC50 [17]: 2.31 µM (active) | AC50 [18]: 1.6 µM (active) | AC50 [19]: 6.75 µM (active) | IC50 (HEK293 [20]): 17.1 µM (inactive) | EC50 (HEK293 [21]): 2.64 µM (active)

COc1ccc(-n2c(/C=C/c3ccc(O)c(OC)c3)nc3ccccc3c2=O)cc1
IC50 [22]: 52.4 µM (active) | EC50 (Streptococcus): 26.5 µM (active) | EC50 [23]: 22 µM (active) | EC50 (Streptokinase A): > 150 µM (not active) | IC50 (H9c2): > 79 µM (inactive) | CC50 [24]: 71 µM (active)

CN1C=CC(=CC=C2C=CC(=O)C=C2)C=C1
IC50 [22]: 18.4 µM (active) | IC50 [11]: 31.2 µM (active) | IC50 (Prothrombin): 62.7 µM (active) | IC50 [12]: > 100 µM (inactive)
